Assay results: patent US6355799B1, “Substituted benzene compounds, process for their preparation, and herbicidal and defoliant compositions containing them” (ISK Americas Incorporated, priority 1997, dated 2002)

How the values were obtained:
Type in all cases: in vivo
[1] = tested on: redroot pigweed (Amaranthus retroflexus, AMARE); test: Pre-emerge test, greenhouse herbicide activity screening; conditions: for Pre-emerge herbicidal activity, phytotoxicity rating AMARE: rating scale 0-100, 14 days after application; for phytotoxicity rating AMARE: pre-emerge, 14 days after application, scale 0-100
How it was run: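 Compounds in acetone were track-sprayed at 15-1000 g ai/ha (187 l/ha) on sandy loam pots: pre-emerge one day after seeding, post-emerge at 2-3 leaf stage with 0.25% v/v non-ionic surfactant. Phytotoxicity was rated 14 days later on a 0 (no damage) to 100 (complete death) scale.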

[2] = tested on: barnyardgrass (Echinochloa crus-galli, ECHCG); test: as above; conditions: for Pre-emerge herbicidal activity, phytotoxicity rating ECHCG: rating scale 0-100, 14 days after application; for phytotoxicity rating ECHCG: pre-emerge, 14 days after application, scale 0-100
How it was run: (§1)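 Sandy loam pots; pre-emerge: sown 1 d pre-spray, surface-watered after, then bottom-watered. Post-emerge: sown 8–21 d before, 2–3 leaf stage, + 0.25% v/v NIS, bottom-watered. Acetone, 187 l/ha track spray, 15–1000 g ai/ha. 0–100 injury score, day 14.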

[3] = tested on: green foxtail (Setaria viridis, SETVI); test: as above; conditions: for Pre-emerge herbicidal activity, phytotoxicity rating SETVI: rating scale 0-100, 14 days after application; for phytotoxicity rating SETVI: pre-emerge, 14 days after application, scale 0-100
How it was run: as §1

[4] = tested on: ivyleaf morningglory (Ipomoea hederacea, IPOHE); test: as above; conditions: for Pre-emerge herbicidal activity, phytotoxicity rating IPOHE: rating scale 0-100, 14 days after application; for phytotoxicity rating IPOHE: pre-emerge, 14 days after application, scale 0-100
How it was run: as §1

[5] = tested on: johnsongrass (Sorghum halepense, SORHA); test: as above; conditions: for Pre-emerge herbicidal activity, phytotoxicity rating SORHA: rating scale 0-100, 14 days after application; for phytotoxicity rating SORHA: pre-emerge, 14 days after application, scale 0-100
How it was run: as §1

[6] = tested on: lambsquarters (Chenopodium album, CHEAL); test: as above; conditions: for Pre-emerge herbicidal activity, phytotoxicity rating CHEAL: rating scale 0-100, 14 days after application; for phytotoxicity rating CHEAL: pre-emerge, 14 days after application, scale 0-100
How it was run: as §1

[7] = tested on: large crabgrass (Digitaria sanguinalis, DIGSA); test: as above; conditions: for Pre-emerge herbicidal activity, phytotoxicity rating DIGSA: rating scale 0-100, 14 days after application; for phytotoxicity rating DIGSA: pre-emerge, 14 days after application, scale 0-100
How it was run: as §1

[8] = tested on: sicklepod (Cassia obtusifolia, CASOB); test: as above; conditions: for Pre-emerge herbicidal activity, phytotoxicity rating CASOB: rating scale 0-100, 14 days after application; for phytotoxicity rating CASOB: pre-emerge, 14 days after application, scale 0-100
How it was run: as §1

[9] = tested on: velvetleaf (Abutilon theophrasti, ABUTH); test: as above; conditions: for Pre-emerge herbicidal activity, phytotoxicity rating ABUTH: rating scale 0-100, 14 days after application; for phytotoxicity rating ABUTH: pre-emerge, 14 days after application, scale 0-100
How it was run: as §1

[10] = tested on: field corn (Zea mays L., var. Dekalb 535, CORN); test: Pre-emerge test, crop safety; conditions: for Pre-emerge phytotoxicity rating, crop damage CORN: rating scale 0-100, 14 days after application; for phytotoxicity rating CORN (crop damage): pre-emerge, 14 days after application, scale 0-100
How it was run: (§2)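 Visual ratings on a 0-100 scale (0 no damage, 100 all plants dead) were taken at 14 days after treatment. Rates of 15-1000 g ai/ha in acetone, 187 l/ha, were sprayed onto soil one day after planting (pre-emerge) or onto 2-3 leaf plants with 0.25% v/v surfactant (post-emerge).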

[11] = tested on: upland rice (Oryza sp., var. Tebonnet, RICE); test: Pre-emerge test, crop safety; conditions: for Pre-emerge phytotoxicity rating, crop damage RICE: rating scale 0-100, 14 days after application; for phytotoxicity rating RICE (crop damage): pre-emerge, 14 days after application, scale 0-100
How it was run: as §2

[12] = tested on: barnyardgrass (Echinochloa crus-galli, ECHCG); test: Post-emerge test, greenhouse herbicide activity screening; conditions: post-emerge; for Post-emerge Herbicidal Activity ECHCG: phytotoxicity rating 0-100 at 14 days after application; for ECHCG phytotoxicity rating: 14 days after application, rating scale 0-100
How it was run: as §2

[13] = tested on: green foxtail (Setaria viridis, SETVI); test: as above; conditions: post-emerge; for Post-emerge Herbicidal Activity SETVI: phytotoxicity rating 0-100 at 14 days after application; for SETVI phytotoxicity rating: 14 days after application, rating scale 0-100
How it was run: as §2

[14] = tested on: ivyleaf morningglory (Ipomoea hederacea, IPOHE); test: as above; conditions: post-emerge; for Post-emerge Herbicidal Activity IPOHE: phytotoxicity rating 0-100 at 14 days after application; for IPOHE phytotoxicity rating: 14 days after application, rating scale 0-100
How it was run: as §2

[15] = tested on: johnsongrass (Sorghum halepense, SORHA); test: as above; conditions: post-emerge; for Post-emerge Herbicidal Activity SORHA: phytotoxicity rating 0-100 at 14 days after application; for SORHA phytotoxicity rating: 14 days after application, rating scale 0-100
How it was run: as §2

[16] = tested on: lambsquarters (Chenopodium album, CHEAL); test: as above; conditions: post-emerge; for Post-emerge Herbicidal Activity CHEAL: phytotoxicity rating 0-100 at 14 days after application; for CHEAL phytotoxicity rating: 14 days after application, rating scale 0-100
How it was run: as §2

[17] = tested on: large crabgrass (Digitaria sanguinalis, DIGSA); test: as above; conditions: post-emerge; for Post-emerge Herbicidal Activity DIGSA: phytotoxicity rating 0-100 at 14 days after application; for DIGSA phytotoxicity rating: 14 days after application, rating scale 0-100
How it was run: as §2

[18] = tested on: redroot pigweed (Amaranthus retroflexus, AMARE); test: as above; conditions: post-emerge; for Post-emerge Herbicidal Activity AMARE: phytotoxicity rating 0-100 at 14 days after application; for AMARE phytotoxicity rating: 14 days after application, rating scale 0-100
How it was run: as §2

[19] = tested on: sicklepod (Cassia obtusifolia, CASOB); test: as above; conditions: post-emerge; for Post-emerge Herbicidal Activity CASOB: phytotoxicity rating 0-100 at 14 days after application; for CASOB phytotoxicity rating: 14 days after application, rating scale 0-100
How it was run: as §2

[20] = tested on: velvetleaf (Abutilon theophrasti, ABUTH); test: as above; conditions: post-emerge; for Post-emerge Herbicidal Activity ABUTH: phytotoxicity rating 0-100 at 14 days after application; for ABUTH phytotoxicity rating: 14 days after application, rating scale 0-100
How it was run: as §2

[21] = tested on: field corn (Zea mays L., var. Dekalb 535, CORN); test: Post-emerge test, crop safety; conditions: post-emerge; for Post-emerge Herbicidal Activity CORN: crop damage rating 0-100 at 14 days after application; for CORN phytotoxicity rating (crop damage): 14 days after application, rating scale 0-100
How it was run: as §1

[22] = tested on: upland rice (Oryza sp., var. Tebonnet, RICE); test: Post-emerge test, crop safety; conditions: post-emerge; for Post-emerge Herbicidal Activity RICE: crop damage rating 0-100 at 14 days after application; for RICE phytotoxicity rating (crop damage): 14 days after application, rating scale 0-100
How it was run: as §1

## O=C(Nc1cc(Cl)ccc1N1C(=O)C2CCCCN2C1=O)c1ccc2ccccc2c1 (stereo not shown) [12-8]
[1]; 63 g ai/ha
  Pre-emerge herbicidal activity, phytotoxicity rating AMARE: 100
[1]; 250 g ai/ha
  Pre-emerge herbicidal activity, phytotoxicity rating AMARE: 100
[2]; 63 g ai/ha
  Pre-emerge herbicidal activity, phytotoxicity rating ECHCG: 0
[2]; 250 g ai/ha
  Pre-emerge herbicidal activity, phytotoxicity rating ECHCG: 40
[3]; 63 g ai/ha
  Pre-emerge herbicidal activity, phytotoxicity rating SETVI: 60
[3]; 250 g ai/ha
  Pre-emerge herbicidal activity, phytotoxicity rating SETVI: 100
[4]; 63 g ai/ha
  Pre-emerge herbicidal activity, phytotoxicity rating IPOHE: 0
[4]; 250 g ai/ha
  Pre-emerge herbicidal activity, phytotoxicity rating IPOHE: 40
[5]; 63 g ai/ha
  Pre-emerge herbicidal activity, phytotoxicity rating SORHA: 10
[5]; 250 g ai/ha
  Pre-emerge herbicidal activity, phytotoxicity rating SORHA: 40
[6]; 63 g ai/ha
  Pre-emerge herbicidal activity, phytotoxicity rating CHEAL: 100
[6]; 250 g ai/ha
  Pre-emerge herbicidal activity, phytotoxicity rating CHEAL: 100
[7]; 63 g ai/ha
  Pre-emerge herbicidal activity, phytotoxicity rating DIGSA: 50
[7]; 250 g ai/ha
  Pre-emerge herbicidal activity, phytotoxicity rating DIGSA: 100
[8]; 63 g ai/ha
  Pre-emerge herbicidal activity, phytotoxicity rating CASOB: 0
[8]; 250 g ai/ha
  Pre-emerge herbicidal activity, phytotoxicity rating CASOB: 20
[9]; 63 g ai/ha
  Pre-emerge herbicidal activity, phytotoxicity rating ABUTH: 0
[9]; 250 g ai/ha
  Pre-emerge herbicidal activity, phytotoxicity rating ABUTH: 100
[10]; 63 g ai/ha
  Pre-emerge phytotoxicity rating, crop damage CORN: 0
[10]; 250 g ai/ha
  Pre-emerge phytotoxicity rating, crop damage CORN: 0
[11]; 63 g ai/ha
  Pre-emerge phytotoxicity rating, crop damage RICE: 30
[11]; 250 g ai/ha
  Pre-emerge phytotoxicity rating, crop damage RICE: 40
[12]; 63 g ai/ha
  Post-emerge Herbicidal Activity ECHCG: 10
[12]; 250 g ai/ha
  Post-emerge Herbicidal Activity ECHCG: 10
[13]; 63 g ai/ha
  Post-emerge Herbicidal Activity SETVI: 20
[13]; 250 g ai/ha
  Post-emerge Herbicidal Activity SETVI: 25
[14]; 63 g ai/ha
  Post-emerge Herbicidal Activity IPOHE: 90
[14]; 250 g ai/ha
  Post-emerge Herbicidal Activity IPOHE: 80
[15]; 63 g ai/ha
  Post-emerge Herbicidal Activity SORHA: 0
[15]; 250 g ai/ha
  Post-emerge Herbicidal Activity SORHA: 10
[16]; 63 g ai/ha
  Post-emerge Herbicidal Activity CHEAL: 95
[16]; 250 g ai/ha
  Post-emerge Herbicidal Activity CHEAL: 99
[17]; 63 g ai/ha
  Post-emerge Herbicidal Activity DIGSA: 10
[17]; 250 g ai/ha
  Post-emerge Herbicidal Activity DIGSA: 0
[18]; 63 g ai/ha
  Post-emerge Herbicidal Activity AMARE: 80
[18]; 250 g ai/ha
  Post-emerge Herbicidal Activity AMARE: 90
[19]; 63 g ai/ha
  Post-emerge Herbicidal Activity CASOB: 50
[19]; 250 g ai/ha
  Post-emerge Herbicidal Activity CASOB: 70
[20]; 63 g ai/ha
  Post-emerge Herbicidal Activity ABUTH: 100
[20]; 250 g ai/ha
  Post-emerge Herbicidal Activity ABUTH: 100
[21]; 63 g ai/ha
  Post-emerge Herbicidal Activity CORN: 5
[21]; 250 g ai/ha
  Post-emerge Herbicidal Activity CORN: 10
[22]; 63 g ai/ha
  Post-emerge Herbicidal Activity RICE: 20
[22]; 250 g ai/ha
  Post-emerge Herbicidal Activity RICE: 15

## COc1c(Br)cc(F)c(-n2c(=O)cc(C(F)(F)F)n(C)c2=O)c1NC(=O)C=Cc1ccccc1 [2-175]
[1]; 63 g ai/ha
  phytotoxicity rating AMARE: 100
[1]; 250 g ai/ha
  phytotoxicity rating AMARE: 100
[2]; 63 g ai/ha
  phytotoxicity rating ECHCG: 0
[2]; 250 g ai/ha
  phytotoxicity rating ECHCG: 40
[3]; 63 g ai/ha
  phytotoxicity rating SETVI: 0
[3]; 250 g ai/ha
  phytotoxicity rating SETVI: 60
[4]; 63 g ai/ha
  phytotoxicity rating IPOHE: 70
[4]; 250 g ai/ha
  phytotoxicity rating IPOHE: 50
[5]; 63 g ai/ha
  phytotoxicity rating SORHA: 0
[5]; 250 g ai/ha
  phytotoxicity rating SORHA: 30
[6]; 63 g ai/ha
  phytotoxicity rating CHEAL: 100
[6]; 250 g ai/ha
  phytotoxicity rating CHEAL: 100
[7]; 63 g ai/ha
  phytotoxicity rating DIGSA: 0
[7]; 250 g ai/ha
  phytotoxicity rating DIGSA: 60
[8]; 63 g ai/ha
  phytotoxicity rating CASOB: 30
[8]; 250 g ai/ha
  phytotoxicity rating CASOB: 30
[9]; 63 g ai/ha
  phytotoxicity rating ABUTH: 100
[9]; 250 g ai/ha
  phytotoxicity rating ABUTH: 100
[10]; 63 g ai/ha
  phytotoxicity rating CORN (crop damage): 0
[10]; 250 g ai/ha
  phytotoxicity rating CORN (crop damage): 0
[11]; 63 g ai/ha
  phytotoxicity rating RICE (crop damage): 20
[11]; 250 g ai/ha
  phytotoxicity rating RICE (crop damage): 40
[12]; 63 g ai/ha
  ECHCG phytotoxicity rating: 0
[12]; 250 g ai/ha
  ECHCG phytotoxicity rating: 20
[13]; 63 g ai/ha
  SETVI phytotoxicity rating: 0
[13]; 250 g ai/ha
  SETVI phytotoxicity rating: 20
[14]; 63 g ai/ha
  IPOHE phytotoxicity rating: 100
[14]; 250 g ai/ha
  IPOHE phytotoxicity rating: 100
[15]; 63 g ai/ha
  SORHA phytotoxicity rating: 0
[15]; 250 g ai/ha
  SORHA phytotoxicity rating: 10
[16]; 63 g ai/ha
  CHEAL phytotoxicity rating: 100
[16]; 250 g ai/ha
  CHEAL phytotoxicity rating: 100
[17]; 63 g ai/ha
  DIGSA phytotoxicity rating: 0
[17]; 250 g ai/ha
  DIGSA phytotoxicity rating: 10
[18]; 63 g ai/ha
  AMARE phytotoxicity rating: 100
[18]; 250 g ai/ha
  AMARE phytotoxicity rating: 100
[19]; 63 g ai/ha
  CASOB phytotoxicity rating: 100
[19]; 250 g ai/ha
  CASOB phytotoxicity rating: 100
[20]; 63 g ai/ha
  ABUTH phytotoxicity rating: 100
[20]; 250 g ai/ha
  ABUTH phytotoxicity rating: 100
[21]; 63 g ai/ha
  CORN phytotoxicity rating (crop damage): 10
[21]; 250 g ai/ha
  CORN phytotoxicity rating (crop damage): 10
[22]; 63 g ai/ha
  RICE phytotoxicity rating (crop damage): 50
[22]; 250 g ai/ha
  RICE phytotoxicity rating (crop damage): 80
